In ChEMBL document CHEMBL5042504 (J Med Chem, 2022) one finds Activity and IC50 data, which are given here for two compounds.

Active and inactive are the calls of the source. No cut-off for these calls is given here.

One assay relates to MV4-11. Kind of assay: Up regulation of acetylated histoneH4 in expression in human MV4-11 cells at 100 nM measured after 24 hrs by Western blot analysis. The class given is functional, cell-based.
Another assay relates to MOLM-13. Kind of assay: Antiproliferative activity against human MOLM-13 cells assessed as reduction in cell viability measured after 48 hrs by multiplate reader method. To be noted: MOLM-13, 48 h.
Another assay addresses Histone deacetylase 9 (Homo sapiens, UniProt Q9UKV0). Kind of assay: Inhibition of human recombinant HDAC9 using Boc-Lys(triflouroacetyI)-AMC substrate incubated for 2 hrs by fluorescence based assay.
The next assay relates to HL-60. Kind of assay: Antiproliferative activity against human HL-60 cells assessed as reduction in cell viability after 48 hrs by multiplate reader method. The following applies: HL-60, 48 h.
Assay [1] concerns the target T1, Protein deacetylase HDAC6 (Homo sapiens, UniProt Q9UBN7).
T1 sequence (Q9UBN7 whole entry): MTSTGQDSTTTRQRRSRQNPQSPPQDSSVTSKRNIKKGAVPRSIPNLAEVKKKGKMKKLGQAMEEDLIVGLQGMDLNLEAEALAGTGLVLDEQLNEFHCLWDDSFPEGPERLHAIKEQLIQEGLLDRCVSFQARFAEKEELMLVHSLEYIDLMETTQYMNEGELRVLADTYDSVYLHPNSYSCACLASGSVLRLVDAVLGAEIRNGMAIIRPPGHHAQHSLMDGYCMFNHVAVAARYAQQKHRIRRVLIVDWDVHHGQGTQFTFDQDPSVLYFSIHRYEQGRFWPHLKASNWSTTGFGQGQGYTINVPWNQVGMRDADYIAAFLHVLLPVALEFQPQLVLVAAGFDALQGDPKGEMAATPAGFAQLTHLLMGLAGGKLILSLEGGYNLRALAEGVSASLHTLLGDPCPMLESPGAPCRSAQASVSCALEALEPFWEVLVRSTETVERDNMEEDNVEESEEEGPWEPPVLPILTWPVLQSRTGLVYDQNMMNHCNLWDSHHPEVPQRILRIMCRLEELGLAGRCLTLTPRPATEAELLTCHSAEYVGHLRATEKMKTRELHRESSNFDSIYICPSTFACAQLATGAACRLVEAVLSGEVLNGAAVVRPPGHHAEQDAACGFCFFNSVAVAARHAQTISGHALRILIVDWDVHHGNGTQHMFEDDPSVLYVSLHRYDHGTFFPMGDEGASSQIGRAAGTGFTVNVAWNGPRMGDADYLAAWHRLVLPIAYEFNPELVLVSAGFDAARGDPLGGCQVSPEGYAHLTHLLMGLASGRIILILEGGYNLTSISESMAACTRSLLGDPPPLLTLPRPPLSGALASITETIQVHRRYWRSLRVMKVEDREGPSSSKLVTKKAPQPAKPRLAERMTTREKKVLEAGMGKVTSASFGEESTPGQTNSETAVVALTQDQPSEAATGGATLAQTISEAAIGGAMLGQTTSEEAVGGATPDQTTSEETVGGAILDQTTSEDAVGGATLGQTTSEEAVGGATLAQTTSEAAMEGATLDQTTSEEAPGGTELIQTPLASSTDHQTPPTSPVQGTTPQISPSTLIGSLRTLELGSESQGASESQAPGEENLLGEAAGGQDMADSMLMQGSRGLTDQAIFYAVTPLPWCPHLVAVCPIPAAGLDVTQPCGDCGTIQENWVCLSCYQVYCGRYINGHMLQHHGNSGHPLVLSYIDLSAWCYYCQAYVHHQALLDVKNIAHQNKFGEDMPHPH
Kind of assay: Inhibition of human recombinant HDAC6 using Boc-Lys(acetyl)-AMC substrate incubated for 2 hrs by fluorescence based assay.

Assay [2] has as its target T2, Polyamine deacetylase HDAC10 (Homo sapiens, UniProt Q969S8).
T2 sequence (Q969S8 whole entry): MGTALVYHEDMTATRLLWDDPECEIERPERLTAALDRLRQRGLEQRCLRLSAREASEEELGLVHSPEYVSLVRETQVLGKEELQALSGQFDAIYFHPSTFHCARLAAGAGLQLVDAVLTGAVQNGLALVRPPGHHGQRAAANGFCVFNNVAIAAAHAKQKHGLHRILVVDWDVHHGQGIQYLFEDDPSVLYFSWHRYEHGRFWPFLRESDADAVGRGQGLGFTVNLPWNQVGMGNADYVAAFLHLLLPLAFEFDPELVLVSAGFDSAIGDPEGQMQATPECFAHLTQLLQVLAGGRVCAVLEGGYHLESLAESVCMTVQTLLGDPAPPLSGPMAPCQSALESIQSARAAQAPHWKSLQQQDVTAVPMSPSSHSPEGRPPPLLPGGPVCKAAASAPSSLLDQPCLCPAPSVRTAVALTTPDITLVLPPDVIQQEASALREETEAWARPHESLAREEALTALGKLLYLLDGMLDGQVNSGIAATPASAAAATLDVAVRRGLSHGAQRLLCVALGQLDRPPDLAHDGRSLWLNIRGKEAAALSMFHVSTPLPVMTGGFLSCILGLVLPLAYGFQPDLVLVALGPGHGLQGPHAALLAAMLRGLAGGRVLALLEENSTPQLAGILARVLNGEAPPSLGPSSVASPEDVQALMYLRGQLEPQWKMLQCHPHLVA
Kind of assay: Inhibition of human recombinant HDAC10 using Boc-Lys(triflouroacetyI)-AMC substrate incubated for 2 hrs by fluorescence based assay.

The next assay addresses Histone deacetylase 5 (Homo sapiens, UniProt Q9UQL6). Kind of assay: Inhibition of human recombinant HDAC5 using Boc-Lys(triflouroacetyI)-AMC substrate incubated for 2 hrs by fluorescence based assay.
The target in another assay is Histone deacetylase 4 (Homo sapiens, UniProt P56524). Kind of assay: Inhibition of human recombinant HDAC4 using Boc-Lys(triflouroacetyI)-AMC substrate incubated for 2 hrs by fluorescence based assay.
Another assay has as its system U-937. Kind of assay: Antiproliferative activity against human U-937 cells assessed as reduction in cell viability after 48 hrs by MTT assay. To be noted: U-937, 48 h. On the technique in general: Tetrazolium dyes change colour on reduction, which living cells bring about.
The next assay has as its system RS4-11. Kind of assay: Antiproliferative activity against human RS4-11 cells assessed as reduction in cell viability measured after 48 hrs by multiplate reader method. The following applies: RS4-11, 48 h.
The target of another assay is T3, Histone deacetylase 11 (Homo sapiens, UniProt Q96DB2).
T3 sequence (Q96DB2 whole entry): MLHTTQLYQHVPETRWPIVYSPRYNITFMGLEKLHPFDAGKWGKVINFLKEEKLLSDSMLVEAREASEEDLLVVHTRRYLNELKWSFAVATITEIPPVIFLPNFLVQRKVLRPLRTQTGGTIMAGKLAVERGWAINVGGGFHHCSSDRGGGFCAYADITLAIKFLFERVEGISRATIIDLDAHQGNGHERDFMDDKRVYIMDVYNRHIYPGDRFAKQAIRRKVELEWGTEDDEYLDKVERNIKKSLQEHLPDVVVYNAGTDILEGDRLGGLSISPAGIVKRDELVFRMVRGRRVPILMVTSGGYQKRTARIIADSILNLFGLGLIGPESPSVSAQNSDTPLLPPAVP
Kind of assay: Inhibition of human recombinant HDAC11 using Boc-Lys(triflouroacetyI)-AMC substrate incubated for 2 hrs by fluorescence based assay.

Chain of Histone deacetylase 4 (P56524 whole entry): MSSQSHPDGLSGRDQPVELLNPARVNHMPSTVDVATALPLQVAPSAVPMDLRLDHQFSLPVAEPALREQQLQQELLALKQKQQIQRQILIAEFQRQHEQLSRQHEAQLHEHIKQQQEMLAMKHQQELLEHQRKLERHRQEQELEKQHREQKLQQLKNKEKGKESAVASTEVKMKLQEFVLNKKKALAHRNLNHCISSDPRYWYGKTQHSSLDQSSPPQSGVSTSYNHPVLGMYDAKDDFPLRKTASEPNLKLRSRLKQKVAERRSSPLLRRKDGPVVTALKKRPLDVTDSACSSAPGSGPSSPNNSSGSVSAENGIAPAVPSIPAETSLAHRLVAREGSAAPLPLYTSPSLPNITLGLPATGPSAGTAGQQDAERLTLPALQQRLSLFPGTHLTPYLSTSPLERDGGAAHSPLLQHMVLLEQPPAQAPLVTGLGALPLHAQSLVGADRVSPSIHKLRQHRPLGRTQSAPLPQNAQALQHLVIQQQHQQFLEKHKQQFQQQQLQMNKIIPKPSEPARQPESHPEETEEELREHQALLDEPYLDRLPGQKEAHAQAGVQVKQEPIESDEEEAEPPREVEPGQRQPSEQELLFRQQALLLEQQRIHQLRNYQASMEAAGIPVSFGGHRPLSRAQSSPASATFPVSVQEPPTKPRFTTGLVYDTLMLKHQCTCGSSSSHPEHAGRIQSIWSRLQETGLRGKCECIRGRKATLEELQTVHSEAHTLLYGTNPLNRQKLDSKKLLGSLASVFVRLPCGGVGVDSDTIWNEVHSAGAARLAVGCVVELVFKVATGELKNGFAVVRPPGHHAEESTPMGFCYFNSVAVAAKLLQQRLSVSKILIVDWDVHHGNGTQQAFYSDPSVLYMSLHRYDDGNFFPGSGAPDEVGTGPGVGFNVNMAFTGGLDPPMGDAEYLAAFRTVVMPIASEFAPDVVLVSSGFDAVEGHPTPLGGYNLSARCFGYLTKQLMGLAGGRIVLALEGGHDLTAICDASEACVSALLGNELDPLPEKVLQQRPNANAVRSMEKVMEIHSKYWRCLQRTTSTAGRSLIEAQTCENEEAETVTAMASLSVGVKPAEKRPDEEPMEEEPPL
Chain of Histone deacetylase 5 (Q9UQL6 whole entry): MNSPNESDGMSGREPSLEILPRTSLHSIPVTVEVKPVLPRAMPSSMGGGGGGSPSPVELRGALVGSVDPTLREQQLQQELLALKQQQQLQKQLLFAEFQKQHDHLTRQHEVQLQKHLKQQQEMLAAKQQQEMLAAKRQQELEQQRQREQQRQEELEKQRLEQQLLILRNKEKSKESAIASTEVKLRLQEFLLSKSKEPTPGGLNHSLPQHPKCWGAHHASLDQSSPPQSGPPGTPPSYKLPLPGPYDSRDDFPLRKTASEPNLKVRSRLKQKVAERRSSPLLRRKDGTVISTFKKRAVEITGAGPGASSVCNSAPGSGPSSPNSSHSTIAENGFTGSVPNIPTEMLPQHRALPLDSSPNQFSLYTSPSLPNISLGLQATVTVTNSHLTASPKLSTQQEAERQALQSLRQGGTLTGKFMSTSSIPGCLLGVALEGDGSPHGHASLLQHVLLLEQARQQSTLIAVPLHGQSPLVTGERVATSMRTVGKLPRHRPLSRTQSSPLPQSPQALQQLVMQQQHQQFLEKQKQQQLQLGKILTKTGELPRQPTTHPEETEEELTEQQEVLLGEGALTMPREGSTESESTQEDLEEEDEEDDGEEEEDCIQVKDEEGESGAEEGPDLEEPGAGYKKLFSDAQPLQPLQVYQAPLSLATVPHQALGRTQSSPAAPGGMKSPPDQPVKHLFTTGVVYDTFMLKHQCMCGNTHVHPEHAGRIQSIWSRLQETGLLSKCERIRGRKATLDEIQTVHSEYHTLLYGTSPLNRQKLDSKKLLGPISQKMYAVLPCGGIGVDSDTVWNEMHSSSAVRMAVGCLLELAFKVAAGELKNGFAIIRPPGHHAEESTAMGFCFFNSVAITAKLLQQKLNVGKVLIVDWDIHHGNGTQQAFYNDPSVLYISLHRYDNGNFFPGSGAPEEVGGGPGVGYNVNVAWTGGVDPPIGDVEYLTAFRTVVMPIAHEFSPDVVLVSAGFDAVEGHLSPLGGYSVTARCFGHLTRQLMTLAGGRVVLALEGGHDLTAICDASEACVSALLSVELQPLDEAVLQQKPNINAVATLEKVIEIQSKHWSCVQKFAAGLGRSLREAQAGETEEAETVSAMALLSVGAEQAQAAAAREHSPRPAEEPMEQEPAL
Chain of Histone deacetylase 9 (Q9UKV0 whole entry): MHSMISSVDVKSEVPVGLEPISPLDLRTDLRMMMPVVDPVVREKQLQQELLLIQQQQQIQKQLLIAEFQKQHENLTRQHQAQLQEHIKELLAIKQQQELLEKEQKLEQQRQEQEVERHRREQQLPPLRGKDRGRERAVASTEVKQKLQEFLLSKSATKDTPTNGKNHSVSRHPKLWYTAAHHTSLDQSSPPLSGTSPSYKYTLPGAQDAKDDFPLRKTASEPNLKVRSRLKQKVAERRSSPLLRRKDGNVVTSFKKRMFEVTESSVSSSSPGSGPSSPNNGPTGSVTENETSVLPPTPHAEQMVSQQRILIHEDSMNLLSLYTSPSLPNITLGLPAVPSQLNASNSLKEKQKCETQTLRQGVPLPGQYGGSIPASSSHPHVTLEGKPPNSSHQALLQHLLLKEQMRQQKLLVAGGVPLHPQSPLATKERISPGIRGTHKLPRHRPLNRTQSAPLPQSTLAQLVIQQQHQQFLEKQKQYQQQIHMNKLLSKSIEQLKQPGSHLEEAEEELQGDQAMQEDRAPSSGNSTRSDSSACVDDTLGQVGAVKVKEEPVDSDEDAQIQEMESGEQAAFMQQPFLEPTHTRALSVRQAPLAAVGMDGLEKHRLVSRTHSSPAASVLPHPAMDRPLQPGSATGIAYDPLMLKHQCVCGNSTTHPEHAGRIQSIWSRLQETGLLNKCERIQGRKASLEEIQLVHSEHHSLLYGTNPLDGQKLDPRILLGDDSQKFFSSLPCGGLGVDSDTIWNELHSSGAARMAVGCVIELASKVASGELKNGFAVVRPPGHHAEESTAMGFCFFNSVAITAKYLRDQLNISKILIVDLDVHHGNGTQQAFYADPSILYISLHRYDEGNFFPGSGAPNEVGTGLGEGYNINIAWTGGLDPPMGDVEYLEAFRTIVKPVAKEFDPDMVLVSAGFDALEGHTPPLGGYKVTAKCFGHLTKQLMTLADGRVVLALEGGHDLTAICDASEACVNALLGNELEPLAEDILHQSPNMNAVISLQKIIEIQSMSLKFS

Regarding `CCCNNC(=O)c1ccc(CNC(=O)c2cc3ccccc3[nH]2)cc1`, the result in the assay with MV4-11 was Active. In addition, the IC50 (as a rule, the concentration at which inhibition is half-maximal) in the assay with MOLM-13 was 40.4 nM; at Histone deacetylase 9, more than 5000 nM; with HL-60 it was 26.2 nM; in assay [1], more than 10000 nM; in [2] it was more than 5000 nM; at Histone deacetylase 5, more than 5000 nM. The IC50 on Histone deacetylase 4 is more than 5000 nM; in the assay with U-937, 60.5 nM; in the assay with RS4-11, 31.5 nM; on Histone deacetylase 11 it was more than 5000 nM.

For `CCCNNC(=O)c1ccc(CNC(=O)/C=C/c2ccccc2)cc1`, the result with MV4-11 was Active. Further, the IC50 in the assay on MOLM-13 was 103 nM; at Histone deacetylase 9 it was more than 5000 nM; in the assay with HL-60 it was 51.7 nM; in assay [1], more than 10000 nM; in assay [2], more than 5000 nM; on Histone deacetylase 5, more than 5000 nM. In addition, the IC50 at Histone deacetylase 4 is more than 5000 nM; in the assay on U-937, 161 nM; in the assay with RS4-11, 82 nM; on Histone deacetylase 11, more than 5000 nM.
